Measured values taken from patent USRE35224E (The Board of Trustees of the Leland Stanford Junior …, priority 1993, dated 1996).
“Also recorded” adds a separate entry of the source. Structures can show the parent of a compound that is named as a salt. Where two headings read alike, the source gives them in different places.

Assays:
[1] = molecular target: T1, guinea pig myocardial adenylate cyclase (Cavia porcellus, UniProt P47747); assay: Guinea pig myocardial adenylate cyclase assay; type: biochemical; settings: adenylate cyclase
T1 construct: histamine-stimulated adenylate cyclase with GPP(NH)P
Experimental: Male, partly albino, guinea pigs (600 g average weight) were killed by a blow to the head. The hearts were excised and immediately immersed in ice cold oxygenated Tyrode's solution. Both ventricles were dissected free and placed in 250 mM sucrose, 5 mM Tris, 1 mM EDTA, pH 7.45. The tissue was minced with a screen, and was then homogenized with 3 consecutive 5 sec bursts of a Polytron (Brinkman Instruments, Inc., Westbury, NY) at a setting of 11. The homogenate was then centrifuged at 1085×g for 20 min. The pellet was resuspended and recentrifuged twice. The final suspension was filtered through four layers of gauze. Adenylate cyclase was assayed by the method of Salomon et al., Anal. Biochem. (1974) 58:541 as modified by Bristow et al., Mol Pharmacol. (1982) 21:671. Enzyme protein (75-250 μg) was added to a reaction mixture that consisted of 0.1 mM Mg ATP, 0.5 mM MgCl2, 10 mM phosphocreatine, 14.5 μg of creatine kinase (1381 U/mg), 100 mM
The final reaction volume before addition of α-^32 P!ATP was 225 μl. Reaction tubes were stored in cryogenic racks (Kryorack, Isolab, Inc. Akron, OH) at 0° C.
The reaction mixture was pre-warmed in a shaking water bath at 30° C. for 5 min after which 25 μl ([…]) of α-^32 P!ATP (250-500 Ci/mM) was added to label the ATP pool. The assay time was 20 min, the time needed for measurable stimulation of adenylate cyclase. The ^32 P reaction was stopped by the addition of 750 μl of 1% sodium dodecysulfate. ^32 P-labelled cyclic AMP was then isolated by the dual Dowex-alumina column method of Salomon et al., supra. α-^32 P!ATP (New England Nuclear Corporation, Boston, MA) that gave reagent blanks of 50 cpm was purified on Dowex columns as described by Salomon et al., supra.

natural suppressor cells [2] = molecular target: T2, natural suppressor cells (Mus musculus, UniProt P97292); assay: Blocking histamine effects in natural suppressor cells (H2 antagonism); type: cell-based, mouse (BALB/c); settings: for Antagonism by cimetidine (H2 antagonist) of cAMP accumulation: cimetidine 10^-5 M, compounds 6-8 at 10^-4 M, 9 at 10^-7 M
T2 construct: cAMP accumulation
Experimental: This assay was carried out in the same fashion as already described for the derivatives except that ED-90 concentration of the test compound was chosen. Cimetidine was added at the same time in concentrations ranging from 10^-4 to 10^-8 M. Alternatively, 10^-6 M cimetidine was added to 10^-3 -10^-8 M concentration of agonists.

natural suppressor cells [3] = molecular target: T2, natural suppressor cells; assay: Effects of histamine derivatives on cAMP accumulation in natural suppressor (NS) cells; type: cell-based, mouse (BALB/c); settings: for Relative potency: histamine = 1.0; for Activity / potency on NS cells (in words): cAMP accumulation, H2 activity; for Maximal efficacy on cAMP concentrations (in words): compared with histamine
From the text: NS cells were obtained and cultured as follows: four-to six-month old BALB/c mice were anesthetized with pentobarbital and all major lymphoid organs, including all major lymph nodes, the spleen, and the thymus, were irradiated as described by Slavin et al., Science (1976) 193:1252. The skull, lungs, and hind legs were shielded with lead. The mice were given 200 rad per day, 5 times per week, to a total dose of 3400 rad. Irradiation was delivered from a single 250 kV (15A) source (Philips Medical Systems, Inc., Shelton, CT). The mice were killed between 5 and 15 days after completion of the TLI. Spleens were removed aseptically and single cell suspensions were prepared by gently pressing the spleen fragments through a nylon fiber mesh (Tetko, Inc., Elmsford, NY). These spleen cells were fed daily with tissue culture medium containing RPMI 1640, 10% FCS, 2 mM glutamine, 10% CAS and 5×10^-5 M 2-mercaptoethanol and were later cloned by limiting dilutior, The clones were maintained in RPMI 1640 medium with 10% PCS and 10% CAS.
NS cells were centrifuged and resuspended at b 1×10^6 /ml in PBS and incubated at 37° C. for 10 min with 10 mM IBMX at a final concentration at 20 μM. Alternatively the cells were resuspended in 5 mM HEPES and 1 mM MgSO4 and after five minutes were disrupted in a Dounce homogenizer. Broken cells were centrifuged at 20,000 g […] for thirty minutes and supernatant was discarded. The pellet was resuspended in Tris (pH 7.5), 5 mM HEPES and 1 mM MgSO4 and incubated with IBMX.
Cold TCA (100%) was added to a final concentration of 8% and the tubes were stored in ice. Samples were extracted 3 times with 3 volumes of ether. The ether was evaporated at 40° C. in a water bath for approximately 45 min. Acetylation of both experimental samples and cAMP standards were performed by addition of 10 μl of a mixture of triethylamine and acetic anhydride (2:1). […] The radio-immunoassay was performed as reported previously by Khan et al., J. Clin. Invest. (1985) 75:1578.

natural suppressor cells [4] = assay: Mixed leukocyte reaction (MLR) suppressor assay; type: cell-based, mouse (BALB/c, C57 BL/6)
Experimental: Responder (BALB/c) and stimulator (C57 BL/6) spleen cells (5×10^5each) were incubated with graded numbers of NS cells in 0.3 ml/well in 96-well flat bottomed microculture plates (Costar, Data Packaging, Cambridge, MA). The culture medium was supplemented with 100 U/ml penicillin, 100 ug/ml of streptomycin (both GIBCO, Grand Island, NY), and 10=pooled human serum (VSP human serum, Biocell Laboratories, Carson CA). Co-cultured cells and stimulator cells were given 3300 rad before incubation. Cultures were maintained at 37° C. in 5% CO2 for 5 or 6 days. Eighteen hr before termination, 1 μCi of ^3 H!-thymidine (specific activity […]) (New England Nuclear, Boston, MA) was added to each culture. Cells were harvested as described above. The data were expressed as the arithmetic mean of triplicate cultures. Suppression was calculated as follows: percent suppression=1-(CPM with co-cultured cells)/(CPM without co-cultured cells)×100. […] To block the effects of agonists, […] cimetidine was used as an H2 antagonist and 10^-6 M mepyramine was used as an H1 antagonist.
CO-cultured and stimulator cells were given 3300 rad in vitro just prior to incubation. […] See, Khan et al., J. Immunol. (1985) 134:4100. […] To determine the role of H1 and H2 receptors in the modification of NS cell function, the incubation with compound 10 was carried out in the presence of either cimetidine (10^-5 M) or mepyramine (10^-6 M) for four hours at 37° C. The cells were then washed extensively and later added to co-cultures with responder and stimulator cells. […] Similar experiments were carried out with each of the indicated agonists (Table 5).

T2 sequence (P97292 whole entry): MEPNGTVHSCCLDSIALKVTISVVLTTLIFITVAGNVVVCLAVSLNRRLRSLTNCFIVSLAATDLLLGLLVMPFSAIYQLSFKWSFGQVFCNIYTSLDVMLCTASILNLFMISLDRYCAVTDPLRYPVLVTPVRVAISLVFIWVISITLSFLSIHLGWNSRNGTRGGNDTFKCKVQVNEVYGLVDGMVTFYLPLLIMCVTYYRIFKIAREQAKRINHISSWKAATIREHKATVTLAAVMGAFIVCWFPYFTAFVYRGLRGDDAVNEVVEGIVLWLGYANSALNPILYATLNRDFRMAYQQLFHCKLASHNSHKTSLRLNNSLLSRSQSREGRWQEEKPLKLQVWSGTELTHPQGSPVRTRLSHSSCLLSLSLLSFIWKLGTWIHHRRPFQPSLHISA
T1 sequence (P47747 whole entry): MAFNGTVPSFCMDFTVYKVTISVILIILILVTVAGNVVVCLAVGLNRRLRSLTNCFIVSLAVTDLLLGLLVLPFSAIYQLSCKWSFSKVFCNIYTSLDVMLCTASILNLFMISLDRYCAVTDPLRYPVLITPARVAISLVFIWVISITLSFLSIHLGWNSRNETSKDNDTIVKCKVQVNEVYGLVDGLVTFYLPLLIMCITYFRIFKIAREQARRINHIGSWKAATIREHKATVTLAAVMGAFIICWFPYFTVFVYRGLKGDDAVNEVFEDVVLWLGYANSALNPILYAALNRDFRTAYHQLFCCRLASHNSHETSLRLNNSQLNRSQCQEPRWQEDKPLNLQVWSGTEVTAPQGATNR

Relative potency (natural suppressor cells [3]; NS cells)	Activity / potency on NS cells (in words) (natural suppressor cells [3])	Structure (SMILES)	Antagonism by cimetidine (H2 antagonist) of cAMP accumulation (natural suppressor cells [2])	Activity on guinea pig myocardium (in words) [1]	further results
3.8 × 10^3	very potent in NS cell cAMP assays	Cc1ccc(NC(=O)CCCC(C)NCCc2c[nH]cn2)cc1 (stereo not drawn) [Compound 6]	could not be completely inhibited by the H2 antagonist	strikingly impotent in guinea pig myocardium; also recorded: less potent than histamine on the myocardium; also recorded: very weak effects; also recorded: significantly different in their activity	Activity on guinea pig myocardium (in words) ([1]; listed as compound 6): same rank order of potency found in the NS cells; Potency or activity relative to histamine (natural suppressor cells [3]; NS cells): 3000 fold; Potency relative to histamine (in words) (natural suppressor cells [3]; NS cells): three orders of magnitude more potent than histamine; Activity / potency on NS cells (in words) (natural suppressor cells [3]; listed as compound 6): widely divergent activity; also recorded: retained H2 activity
0.3 × 10^1	widely divergent activity	Cc1ccc(NC(=O)CCCCC(C)NCCc2c[nH]cn2)cc1 (stereo not drawn) [Compound 7, 6-2'-(4"-Imidazolyl)ethylamino!heptanoic Acid p-Toluide]		same rank order of potency found in the NS cells	Potency relative to histamine (in words) (natural suppressor cells [3]; NS cells): three times as potent as histamine
0.2 × 10^1	widely divergent activity	Cc1ccc(NC(=O)CCCCCC(C)NCCc2c[nH]cn2)cc1 (stereo not drawn) [Compound 8]		very weak effects	Activity on guinea pig myocardium (in words) ([1]; listed as compound 8): same rank order of potency found in the NS cells
4.3 × 10^4	very potent in NS cell cAMP assays	CC(CCCCC(=O)Nc1ccc(C(F)(F)F)cc1)NCCc1c[nH]cn1 (stereo not drawn) [Compound 9]	could not be completely inhibited by the H2 antagonist	strikingly impotent in guinea pig myocardium	Activity on guinea pig myocardium (in words) ([1]; listed as compound 9): did not stimulate adenylate cyclase in guinea pig myocardium; Potency or activity relative to histamine (natural suppressor cells [3]; NS cells): 40,000 fold; Potency relative to histamine (natural suppressor cells [3]; NS cells): 4 orders of magnitude; Maximal efficacy on cAMP concentrations (in words) (natural suppressor cells [3]; NS cells): lost a significant amount of maximal efficacy; Activity / potency on NS cells (in words) (natural suppressor cells [3]; listed as compound 9): most potent of this series on H2 receptors; also recorded: retained H2 activity
Inactive	lost all H2 activity	CC(CCCC(=O)Nc1ccc(C(F)(F)F)cc1)NCCc1c[nH]cn1 (stereo not drawn) [Compound 10]		no effect on the guinea pig myocardium	H1 activity in MLR (in words) (natural suppressor cells [4]): only H1 agonistic action; H1 activity in MLR (in words) (natural suppressor cells [4]; listed as compound 10): appeared to be a specific H1 receptor agonist

Further lines, the compound ahead of its results:

Structure (SMILES)	Relative potency (natural suppressor cells [3]; NS cells)	Activity / potency on NS cells (in words) (natural suppressor cells [3])	Antagonism by cimetidine (H2 antagonist) of cAMP accumulation (natural suppressor cells [2])	Activity on guinea pig myocardium (in words) [1]	further results
CCCCCCNCCc1c[nH]cn1 [Compound 1, 1-2'-(4"-Imidazo)ethylamino!hexane, Dihydrochloride]	0.5 × 10^1		not inhibited by the H2 antagonist		Activity on guinea pig myocardium (in words) ([1]; Dihydrochloride): completely inactive; also recorded: little or no effect on the myocardium; Potency relative to histamine (in words) (natural suppressor cells [3]; NS cells, Dihydrochloride): about equipotent to histamine; also recorded: equipotent to histamine on the lymphocyte accumulation of cyclic AMP
Cc1ccc(NC(=O)CCCC(=O)NCCc2c[nH]cn2)cc1 [Compound 4, 5-2'-(4"-Imidazo)ethylamido!glutaryl p-Toluidine]	0.4 × 10^1	very active on NS cells	not inhibited by the H2 antagonist	inactive on the guinea pig myocardium; also recorded: little or no effect on the myocardium	Potency relative to histamine (in words) (natural suppressor cells [3]; NS cells): four times more potent than histamine; also recorded: equipotent to histamine on the lymphocyte accumulation of cyclic AMP
Cc1ccc(NC(=O)CCCCNCCc2c[nH]cn2)cc1 [Compound 5, 5-2'-(4"-Imidazo)ethylamino!pentanoic Acid p-Toluide, Dihydrochloride]	0.2 × 10^1				Activity on guinea pig myocardium (in words) ([1]; Dihydrochloride): significantly different in their activity
CNC(=O)CNC(=O)[C@H](Cc1ccc(NC(=O)CCCCC(C)NCCc2c[nH]cn2)cc1)NC(=O)OC(C)(C)C (stereo partly drawn) [Compound 12]	Inactive	impotent as H2 receptor agonists on NS cells		stimulated guinea pig myocardium	Blockade of histamine mediated accumulation of cAMP (natural suppressor cells [2]; NS cells): failed to block histamine mediated accumulation of cAMP; Activity / potency on NS cells (in words) (natural suppressor cells [3]; listed as compound 12): Neither an aliphatic amide derivative of histamine (compound 3) nor the dipeptide conjugate of histamine (compound 12) altered intracellular cAMP; also recorded: inactive on NS cells
CN(C)CCCSC(=N)N [Dimaprit, reference compound]		had H2 effects on the NS cells			Shift of dose response curve by cimetidine (natural suppressor cells [2]; 10^-3 M to 10^-8 M agonist, 10^-6 M cimetidine): parallel shifts to the right; EC50 (natural suppressor cells [3]; NS cells): 60 µM; Maximal efficacy on cAMP concentrations (in words) (natural suppressor cells [3]; NS cells): did not produce the same maximal effects as histamine on cAMP concentrations
COc1ccc(CN(CCN(C)C)c2ccccn2)cc1 [Mepyramine, reference compound]					Effect of antagonist on derivative-enhanced suppression in MLR (natural suppressor cells [4]; with compound 10, cimetidine 10^-5 M or mepyramine 10^-6 M, four hours at 37° C): reversed the increase in suppressive activity of the derivative-stimulated NS cells
